pKd: −log10 of the molar value. Where “and” joins values, the source holds several entries; their conditions need not be identical. Equal entries are not always repeated. Where two headings read alike, the source gives them in different places.
How the values were obtained:
[1] = LC–MS/MS analysis of in situ SC2S formation (tissue distribution); type: in vivo, BALB/c mice; settings: for concentration at 4 h / concentration at 2 h / concentration at 1 h: BALB/c, mouse
Protocol: The blood, tumour, lung, kidney, liver and spleen were collected for each mouse. Three mice treated with vehicle were included as control samples. Whole blood samples were centrifuged at 2,000g, 4 °C for 10 min. Supernatant plasma was aspirated into an Eppendorf tube and frozen at −80 °C. Tumour and organ tissues were snap-frozen in liquid nitrogen and stored at −80 °C until further analysis. The plasma samples (10-µl aliquots) were prepared by protein precipitation extraction. The organic layer was evaporated to dryness and reconstituted in a solution equivalent to the initial chromatographic starting conditions. The tissue samples were analysed by homogenization to give a 200 […] concentration. The homogenised tissue samples (10-µl aliquots) were then taken through the same preparation procedure as the plasma samples. All samples were analysed using the PKB Core Facility’s 6500 LC–MS/MS system, in negative ion mode. The chromatography was carried out using a gradient method on a Kinetex EVO C18 column (50 × 2.1 mm). Analysis was conducted in four batches, consisting of calibration standards, quality control samples, blank control samples, internal standard-only samples and study samples. Calibration curves were constructed using linear regression with a 1/x^2 weighting. A calibration range of 1–500 ng ml^−1 (5–2,500 ng g^−1 in tissue) was used. Precision and accuracy were well within the PK/B core facility’s acceptance criteria of ±20%. The LC–MS/MS method was developed and qualified ahead of the sample analysis. The performance of the method met normal Core Facility acceptance criteria for analysis.

[2] = molecular target: T1, wild-type human STING LBD (hSTINGwt 138-379) (Homo sapiens, UniProt Q86WV6, H232R); assay: Isothermal titration calorimetry (ITC), reverse titration; type: binding
T1 construct: SUMO (N, cleaved yes); made in house; host or cells: Escherichia coli BL21 (DE3)
T1 sequence (Q86WV6 138-379 H232R): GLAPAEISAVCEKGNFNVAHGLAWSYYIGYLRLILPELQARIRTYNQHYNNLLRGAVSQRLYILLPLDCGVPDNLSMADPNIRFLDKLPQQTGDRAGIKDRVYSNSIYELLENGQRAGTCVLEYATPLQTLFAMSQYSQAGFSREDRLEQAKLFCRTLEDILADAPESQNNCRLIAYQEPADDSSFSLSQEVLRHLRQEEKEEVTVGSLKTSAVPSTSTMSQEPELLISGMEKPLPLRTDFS
Protocol: Escherichia coli BL21 (DE3) (Thermo Scientific EC0114) was transformed with a pET28a plasmid (Genscript) harbouring the codon-optimized sequence of SUMO-hSTINGwt (aa138-379). Transformed BL21 cells were inoculated into LB medium (50 µg ml^−1 kanamycin) and incubated at 180 rpm, 37 °C overnight. The overnight culture was then diluted (1:100 dilution) in 2× YT medium (50 µg ml^−1 kanamycin) and incubated at 180 rpm, 37 °C until optical density at 600 nm (OD600) reached 0.6 (approximately 3 h). The bacterial culture was then cooled to 16 °C, induced with 0.5 mM isopropyl 1-thio-D-galactopyranoside and incubated overnight at 180 rpm, 16 °C. The bacterial cells were pelleted at 4,000g for 30 min, resuspended in 20 ml of lysis buffer (25 mM HEPES pH 7.5, 150 mM NaCl, 20 mM imidazole and 2 mM TCEP supplied with 2 tablets of cOmplete mini EDTA-free protease inhibitors) and disrupted by sonication on ice. The total lysate was clarified by centrifugation at 22,000g for 30 min. The supernatant was collected and filtered through a 0.45-µm filter (Millipore SLHAR33SS). The clarified lysate was then incubated on a roller with 10 ml bed volume of Ni-NTA resin (Thermo Scientific 88223) at 4 °C for 1 h. The Ni-NTA resin was then packed in a column, flushed with 20 ml of wash buffer (25 mM HEPES pH 7.5, 150 mM NaCl and 20 mM imidazole) and eluted with 40 ml of elution buffer (25 mM HEPES pH 8.0, 150 mM NaCl and 250 mM imidazole). The eluted protein was concentrated to approximately 5 ml (Millipore Amicon 10 kDa molecular weight cut-off (MWCO)) and buffer-exchanged into storage buffer (25 mM HEPES pH 7.5 and 150 mM NaCl). TCEP was then added to a final concentration of 2 mM, and 250 units of SUMO protease (Merck SAE0067) were added. The cleavage reaction mixture was left to stand at 4 °C overnight until LC–MS analysis indicated the completion of the cleavage reaction. The cleavage mixture was incubated with 10 ml bed volume of Ni-NTA resin on a roller at 4 °C for 1 h and packed in a disposable column. The flowthrough was collected, and the resin was further flushed with 20 ml of wash buffer. The eluted fractions were combined, concentrated and further purified by size-exclusion chromatography (Cytiva, Superdex 200 Increase 10/300 GL). The purified protein in storage buffer was concentrated to 330 µM (dimer concentration) as determined by bicinchoninic acid (BCA) assay, aliquoted, flash-frozen in liquid nitrogen and stored at −80 °C for future use.
The binding constants of purified dimers were measured by ITC (Malvern Panalytical AutoITC200) in a reverse-titration format. Stock DMSO solutions of each dimer were dissolved in titration buffer (25 mM HEPES pH 7.5 and 150 mM NaCl) to a final concentration of 25 µM and added to the titration cell. The syringe was filled with 250 µM of purified STING in a matching buffer. Titration was performed at 25 °C with the following parameters: 750 rpm stirring, 0.2 µl initial injection followed by 2-µl injections of the […] every 120 s. Titration of STING protein into blank buffer was separately performed and subtracted from the raw data before the analysis. The background-subtracted titration curves were fitted with the built-in Origin software using the standard one-site model.
Extended Data Fig. 2 Isothermal titration calorimetry (ITC) data for binding constant measurements. Purified hSTINGwt138-379 (250 μM of homodimer) was titrated into each dimer (25 μM) dissolved in a matching buffer (25 mM HEPES pH 7.5, 150 mM NaCl) at 25 °C and 750 rpm stirring. Binding constants were reported as the average from duplicate measurements.

THP-1 cells = assay: Dilution limits of N1/E4 combination to activate THP-1 cells (IFN-β ELISA)

COc1cc2sc(C(=O)CCC(=O)O)cc2cc1SCCSc1cc2cc(C(=O)CCC(=O)O)sc2cc1OC [SC2S]
Blood Calculated Concentration ([1]; 1h, individual samples): BLQ
Kidney Calculated Concentration ([1]; 1h, individual samples): BLQ
Lung Calculated Concentration ([1]; 1h, individual samples): BLQ
Tumour Calculated Concentration ([1]; 1h, individual samples): 64.6 ng/mL and 323 ng/g and 11.6 ng/mL and 58.1 ng/g and 12.1 ng/mL and 60.6 ng/g
Blood Calculated Concentration ([1]; 2h, individual samples): BLQ
Liver Calculated Concentration ([1]; 2h, individual samples): BLQ
Spleen Calculated Concentration ([1]; 2h, individual samples): BLQ
Tumour Calculated Concentration ([1]; 2h, individual samples): 17.8 ng/mL and 89.2 ng/g and 62.2 ng/mL and 311 ng/g and 4.45 ng/mL and 22.2 ng/g
Kidney Calculated Concentration ([1]; 4h, individual samples): BLQ
Spleen Calculated Concentration ([1]; 4h, individual samples): BLQ
Tumour Calculated Concentration ([1]; 4h, individual samples): 12.1 ng/mL and 60.4 ng/g and 19.6 ng/mL and 98.2 ng/g and 4.66 ng/mL and 23.3 ng/g
Kidney Calculated Concentration ([1]; 8h, individual samples): BLQ
Liver Calculated Concentration ([1]; 8h, individual samples): BLQ
Spleen Calculated Concentration ([1]; 8h, individual samples): BLQ
Tumour Calculated Concentration ([1]; 8h, individual samples): BLQ
Kidney Calculated Concentration ([1]; 24h, individual samples): BLQ
Spleen Calculated Concentration ([1]; 24h, individual samples): BLQ
concentration at 4 h ([1]; liver, 4h, read-out: Liver Mean concentration): 9.3 ng/g
concentration at 4 h ([1]; liver, other: β-GlcA-N1 intraperitoneal (IP) + E4 intratumoral (IT), 4h, individual samples, read-out: Liver Calculated Concentration): 1.86 ng/mL and 9.3 ng/g
concentration at 2 h ([1]; plasma, 2h, individual samples, read-out: Blood Calculated Concentration): 3.03 ng/mL
concentration at 2 h ([1]; plasma, 2h, read-out: Blood Mean concentration): 3.03 ng/mL
concentration at 1 h ([1]; plasma, other: β-GlcA-N1 intraperitoneal (IP) + E4 intratumoral (IT), 1h, individual samples, read-out: Blood Calculated Concentration): 1.29 ng/mL
concentration at 1 h ([1]; plasma, other: β-GlcA-N1 intraperitoneal (IP) + E4 intratumoral (IT), 1h, read-out: Blood Mean concentration): 1.29 ng/mL
concentration at 2 h ([1]; tumour, 2h, read-out: Tumour Mean concentration): 141 ng/g
concentration at 4 h ([1]; tumour, 4h, read-out: Tumour Mean concentration): 60.7 ng/g
concentration at 1 h ([1]; tumour, other: β-GlcA-N1 intraperitoneal (IP) + E4 intratumoral (IT), 1h, read-out: Tumour Mean concentration): 147 ng/g
pKd ([2]; 25 °C, average of duplicate measurements, read-out: Kd hSTINGwt (binding constant, ITC)): 6.75
pKd ([2]; ITC run _01, read-out: Kd): 6.72
pKd ([2]; ITC run _02, read-out: Kd): 6.80
Response from SC2S, OD 450 (THP-1 cells; 0.195312 uM): 0.075
Response from SC2S, OD 450 (THP-1 cells; 0.390625 uM): 0.634
Response from SC2S, OD 450 (THP-1 cells; 0.78125 uM): 1.146
Response from SC2S, OD 450 (THP-1 cells; 1.5625 uM): 2.392
Response from SC2S, OD 450 (THP-1 cells; 3.125 uM): 2.683
Response from SC2S, OD 450 (THP-1 cells; 6.25 uM): 2.764
Response from SC2S, OD 450 (THP-1 cells; 12.5 uM): 2.752
Response from SC2S, OD 450 (THP-1 cells; 25 uM, defined as 100% activation): 2.757

Reference: PMC12669040, “Tumour-specific STING agonist synthesis via a two-component prodrug system” (Nature Chemistry, 2025)
